In assay [1] the test system is HCC827 cells. The experiment in a line: Restoring HCC827 sensitivity to erlotinib in the presence of HGF. The note with it: Homo sapiens, HCC827, 72 h, read-out: AVG = average % of cell viability. The method, then:
Briefly, 3×10^3 cells/well in 100 μL culture medium may be plated in 96 well plates and incubated overnight at 37° C., 5% CO2. […] Cell viability may be determined by measuring luminescence.

Assay [2] relates to HT-29 cells. The assay can be described thus: Restoring HT-29 sensitivity to PLX4032 in the presence of HGF and EGF. The assay is classed as cell-based. Particulars: Homo sapiens, HT-29, 120 h; read-out: AVG = average % of cell viability. As to the method:
The colon cancer cell line HT-29 has a B-Raf mutation and is sensitive to the B-Raf inhibitor PLX4032. […] Briefly, 3×10^3 cells/well in 100 μL culture medium may be plated in 96 well plates and incubated overnight at 37° C., 5% CO2. […] At the end of an additional 5 days of cell growth, plates may be equilibrated to room temperature for 30 minutes and 100 μL per well of CellTiter-Glo® reagent (Promega Corp.) may be added. Cell viability can be determined by measuring luminescence.

The subject of assay [3] is FaDu cells. The assay can be described thus: Restoring FaDu sensitivity to lapatinib in the presence of HGF or EGF. The note with it: Homo sapiens, antibodies 50 nM, read-out: % of cell viability; for viability at 0.001 µM: lapatinib 0.001 μM; for viability at 0.003 µM: lapatinib 0.003 μM; for viability at 0.01 µM: lapatinib 0.01 μM; for viability at 0.03 µM: lapatinib 0.03 μM; for viability at 0.1 µM: lapatinib 0.1 μM; for viability at 0.3 µM: lapatinib 0.3 μM; for viability at 1 µM: lapatinib 1 μM; for viability at 3 µM: lapatinib 3 μM; for viability at 10 µM: lapatinib 10 μM. The assay is classed as cell-based. The method, then: Briefly, 3×10^3 cells/well in 100 μL culture medium may be plated in 96 well plates and incubated overnight at 37° C., 5% CO2. […] At the end of an additional 5 days of cell growth, plates may be equilibrated to room temperature for 30 minutes and 100 μL per well of CellTiter-Glo® reagent (Promega Corp.) may be added. Cell viability can be determined by measuring luminescence.

The subject of assay [4] is MKN45 cells. The experiment in a line: MKN45 apoptosis assay (caspase-3/7 positive cells, […]). Format: cell-based, human. The note with it: antibody 100 nM, untreated = 100.00. As to the method:
The gastric cancer cell line MKN45 can be used to assay apoptosis induced by antibodies. Briefly, 3×10^3 cells/well in 80 μL culture medium may be plated in 96 well plates and incubated overnight at 37° C., 5% CO2. CellEvent™ reagent (Life Technologies, Carlsbad, Calif.) may be diluted in cell culture medium and added at 10 μL per well. […] The caspase-3/7 positive cells may be measured in real-time by […]™ Kinetic Imaging System (Essen Bioscience, Ann Arbor, Mich.) with 3 hours intervals at 37° C., 5% CO2 for a total of 120 hours.

Assay [5] concerns ERK phosphorylation. The note with it: in vitro ERK phosphorylation assay; cited from earlier work.

The values below come from patent publication US9328173B2, “Multifunctional antibodies binding to EGFR and MET” (Eli Lilly and Company, priority 2013, dated 2016).

Like-named read-outs stand apart in the source and are kept apart here.

As to `C#Cc1cccc(Nc2ncnc3cc(OCCOC)c(OCCOC)cc23)c1` [Erlotinib, erlotinib], the viability at 1 µM in assay [1] turned out to be 18%.
`CCCS(=O)(=O)Nc1ccc(F)c(C(=O)c2c[nH]c3ncc(-c4ccc(Cl)cc4)cc23)c1F` [PLX, PLX4032]: in assay [2], the viability at 0.00032 µM amounted to 101%, the viability at 0.0016 µM was found to be 99.9%, the viability at 0.008 µM worked out at 97.6% and the viability at 0.04 µM came to 83.1%. In assay [2], the viability at 0.2 µM was found to be 56.7% and the viability at 1 µM worked out at 33.7%.
With `CS(=O)(=O)CCNCc1ccc(-c2ccc3ncnc(Nc4ccc(OCc5cccc(F)c5)c(Cl)c4)c3c2)o1` [lapatinib], in assay [3] (E = EGF (50 ng/ml)), the viability at 0.001 µM is 109%, the viability at 0.003 µM was determined as 109%, the viability at 0.01 µM worked out at 78.7% and the viability at 0.03 µM was determined as 69.4%. In addition, in assay [3] (E = EGF (50 ng/ml)), the viability at 0.1 µM stood at 45.6%, the viability at 0.3 µM came out at 32.5%, the viability at 1 µM was found to be 26.3% and the viability at 3 µM worked out at 19%. Further, in assay [3] (E = EGF (50 ng/ml)), the viability at 10 µM amounted to 19.6%. Moreover, in assay [3] (H = HGF (50 ng/ml)), the viability at 0.001 µM is 99.5%, the viability at 0.003 µM turned out to be 101%, the viability at 0.01 µM turned out to be 95.8% and the viability at 0.03 µM came out at 68.8%. Besides, in assay [3] (H = HGF (50 ng/ml)), the viability at 0.1 µM came to 45.4%, the viability at 0.3 µM stood at 32.5%, the viability at 1 µM is 26.9% and the viability at 3 µM is 18.5%. Further, the viability at 10 µM in assay [3] (H = HGF (50 ng/ml)) came out at 17.1%.
Regarding “anti-MET Ab: parental anti-MET antibody C8-H241 (human IgG4 subtype), described in WO 2010/059654 [reference compound]”, the “AVG = average % increase of cell apoptosis” value is 100.35% in assay [4] (24 hr); 222.81% in assay [4] (48 hr); 275.40% in assay [4] (72 hr); 286.63% in assay [4] (96 hr); 353.84% in assay [4] (120 hr).

B1: EM1-mAb: bispecific antibody targeting both EGFR and cMET made by controlled Fab Arm Exchange (antibody, chains of the INN, looked up, V domains shown)
VH: QVQLVESGGGVVQPGRSLRLSCAASGFTFSTYGMHWVRQAPGKGLEWVAVIWDDGSYKYYGDSVKGRFTISRDNSKNTLYLQMNSLRAEDTAVYYCARDGITMVRGVMKDYFDYWGQGTLVTVSS
VL: AIQLTQSPSSLSASVGDRVTITCRASQDISSALVWYQQKPGKAPKLLIYDASSLESGVPSRFSGSESGTDFTLTISSLQPEDFATYYCQQFNSYPLTFGGGTKVEIK
VH2: QVQLVQSGAEVKKPGASVKVSCETSGYTFTSYGISWVRQAPGHGLEWMGWISAYNGYTNYAQKLQGRVTMTTDTSTSTAYMELRSLRSDDTAVYYCARDLRGTNYFDYWGQGTLVTVSS
VL2: DIQMTQSPSSVSASVGDRVTITCRASQGISNWLAWFQHKPGKAPKLLIYAASSLLSGVPSRFSGSGSGTDFTLTISSLQPEDFATYYCQQANSFPITFGQGTRLEIK
As for B1, the “activity compared to the combination of monovalent control antibodies” value in assay [5] is given as “superior activity”.
